Results published in patent US6835695B2, “Herbicidal Compositions” (Aventis CropScience GmbH, priority 2000, dated 2004).

System: monocotyledonous and dicotyledonous weed plants
Test: Post-emergence greenhouse test, herbicidal action scored visually (weeds not split)
Format: in vivo
Conditions: with Genapol X 150, X 200, O 200 or Sapogenat T130, T 200, T 300, T 400, T 500 at e.g. 50, 100, 300, 500 g/ha, vs no surfactant or low-EO surfactant (Genapol O 060, Sapogenat T 040)
Protocol: Seeds or rhizome pieces of monocotyledonous and dicotyledonous weed plants were placed in sandy loamy soil in plastic pots, covered with soil and grown in the greenhouse under favorable growth conditions. Three weeks after sowing, the test plants were treated in the three-leaf stage. The compounds according to the invention which were formulated in the form of wettable powders or emulsion concentrates were sprayed onto the green plant parts at an application rate of 600 to 800 l of water/ha (converted), in various dosages. After the test plants had been left to stand in the greenhouse under optimum growth conditions for 3 to 4 weeks the effect of the preparations was scored visually by comparison with untreated controls.

CCOCC1CC(c2c(S(=O)(=O)CC)ccc(C(=O)C3C(=O)CCCC3=O)c2Cl)=NO1 (stereo not shown) [Herbicide A6]
action of the herbicide when combined with a high-EO surfactant (herbicide 80 g/ha): increased markedly

CS(=O)(=O)c1ccc(C(=O)C2C(=O)CCCC2=O)c([N+](=O)[O-])c1 [Herbicide A1]
action of the herbicide when combined with a high-EO surfactant (herbicide 200 g/ha): increased markedly

CCS(=O)(=O)c1ccc(C(=O)C2C(=O)CCCC2=O)c(Cl)c1C1=NOC(CC#N)C1 (stereo not shown) [Herbicide A4]
action of the herbicide when combined with a high-EO surfactant (herbicide 80 g/ha): increased markedly

CS(=O)(=O)c1ccc(C(=O)C2C(=O)CCCC2=O)c(Cl)c1COCC(F)(F)F [Herbicide A9]
action of the herbicide when combined with a high-EO surfactant (herbicide 80 g/ha): increased markedly
